Where “and” joins values, the source holds several entries; their conditions need not be identical. Equal entries are not always repeated.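 Where inhibition never reached the appropriate level, the endpoint shown equals the highest concentration tested. Otherwise, values were interpolated linearly from a five-concentration, 48-hour dose response in 96-well plates. TGI denotes the concentration required for complete inhibition of growth.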

The values that follow come from PubChem BioAssay (NCI).

One experiment concerns MDA-N. As to the kind of experiment: growth of human tumour cells (NCI), 48 h.
Take `CCCCCCCCCCCCCCCCCCNc1ccn(C2OC(COP(=O)(O)OCC3OC(n4cc(F)c(=O)[nH]c4=O)CC3O)C(O)C2O)c(=O)n1` (stereo unspecified): the TGI was more than 100 µM.
The same measure, in the same setting: to `CCOC(=O)/C(C#N)=C\c1ccc(N(CCC(=O)O)CCC(=O)O)c(I)c1` belongs more than 10 µM; to `O=C(NC1=NCC(CN2CCN(c3ccccc3)CC2)O1)Nc1ccccc1` (stereo unspecified), more than 100 µM; to `Cc1cc2ccccc2n2c1nc1ccccc12`, more than 100 µM.
The same measure, in the same setting: to `CC(=O)C(=C(c1ccccc1)c1ccccc1)c1ccccc1` belongs more than 100 µM; to `Cc1ccc2c(c1)[nH]c(=S)n2/C=C1\C(=O)Oc2ccccc2C1=O`, more than 100 µM; to `C=CCNC(=O)NC(=O)CSC1=NNC2(C(=O)N1)c1ccccc1-c1ccccc12`, more than 10 µM.
On to `O=C1CCCCC/C1=C\c1cccc(Cl)c1`, for which the TGI is more than 100 µM.
As for `COC(=O)C1(C(=O)OC)Cc2ccc(OC)cc2C2=C1C(=O)c1ccccc1C2=O`, the TGI came out at 3.36 µM.
Turning to `O=C1C(Cl)C2(CC(/C=C/c3ccccc3Cl)=NN2c2cccc(S(=O)(=O)O)c2)N1c1nc2ccccc2s1` (stereo unspecified), the TGI is more than 100 µM.
`Nc1ncnn2c(C3OC(CO)C(O)C3O)ccc12` (stereo unspecified) came in with a TGI of 0.693 µM.
On the same count and under the same terms, to `COCCOC(=O)c1c(C)n([O-])c2cc(Cl)c(Cl)cc2[n+]1=O` belongs more than 100 µM; to `O=C(CC(=O)N(C(=O)/C=C\c1ccccc1)c1ccc(Cl)cc1)N1N=C(c2ccccc2)C(N=Nc2cccc([N+](=O)[O-])c2)C1=O` (stereo unspecified), more than 100 µM; to `Cn1c(=O)c(Br)c(C=O)n(CCO[N+](=O)[O-])c1=O`, 17.3 µM.
`COc1ccc(-c2c(C#N)c(N)n(C3OCC(OC(C)=O)C(OC(C)=O)C3OC(C)=O)c(=S)c2C#N)cc1` (stereo unspecified): the TGI is more than 100 µM.

Another experiment concerns T-47D breast. As to the kind of experiment: growth of human tumour cells (NCI), 48 h.
`CCCCCCCCCCCCCCCCCCNc1ccn(C2OC(COP(=O)(O)OCC3OC(n4cc(F)c(=O)[nH]c4=O)CC3O)C(O)C2O)c(=O)n1` (stereo unspecified): the TGI is more than 100 µM.
Still for that read-out and setting: to `CCOC(=O)/C(C#N)=C\c1ccc(N(CCC(=O)O)CCC(=O)O)c(I)c1` belongs more than 10 µM; to `O=C(NC1=NCC(CN2CCN(c3ccccc3)CC2)O1)Nc1ccccc1` (stereo unspecified), more than 100 µM; to `Cc1cc2ccccc2n2c1nc1ccccc12`, more than 100 µM.
The same measure, in the same setting: the same measure for `CC(=O)C(=C(c1ccccc1)c1ccccc1)c1ccccc1`: more than 100 µM.
Molecule `Cc1ccc2c(c1)[nH]c(=S)n2/C=C1\C(=O)Oc2ccccc2C1=O` gave a TGI of more than 100 µM.
`C=CCNC(=O)NC(=O)CSC1=NNC2(C(=O)N1)c1ccccc1-c1ccccc12`: the TGI was more than 10 µM.
`O=C1CCCCC/C1=C\c1cccc(Cl)c1` gave a TGI of more than 100 µM.
On the same count and under the same terms, the same measure for `COC(=O)C1(C(=O)OC)Cc2ccc(OC)cc2C2=C1C(=O)c1ccccc1C2=O`: 6.9 µM.
On the same count and under the same terms, to `O=C1C(Cl)C2(CC(/C=C/c3ccccc3Cl)=NN2c2cccc(S(=O)(=O)O)c2)N1c1nc2ccccc2s1` (stereo unspecified) belongs more than 100 µM; to `Nc1ncnn2c(C3OC(CO)C(O)C3O)ccc12` (stereo unspecified), 6.93 µM; to `COCCOC(=O)c1c(C)n([O-])c2cc(Cl)c(Cl)cc2[n+]1=O`, 61.2 µM.
Still for that read-out and setting: the same measure for `O=C(CC(=O)N(C(=O)/C=C\c1ccccc1)c1ccc(Cl)cc1)N1N=C(c2ccccc2)C(N=Nc2cccc([N+](=O)[O-])c2)C1=O` (stereo unspecified): more than 100 µM.
`Cn1c(=O)c(Br)c(C=O)n(CCO[N+](=O)[O-])c1=O` came in with a TGI of 14.6 µM.
The same measure, in the same setting: the same measure for `COc1ccc(-c2c(C#N)c(N)n(C3OCC(OC(C)=O)C(OC(C)=O)C3OC(C)=O)c(=S)c2C#N)cc1` (stereo unspecified): 81.6 µM and > 100 µM.

The test system of another experiment is SR leukemia. Briefly: growth of human tumour cells (NCI), 48 h.
In turn, `CCCCCCCCCCCCCCCCCCNc1ccn(C2OC(COP(=O)(O)OCC3OC(n4cc(F)c(=O)[nH]c4=O)CC3O)C(O)C2O)c(=O)n1` (stereo unspecified) displayed a TGI of 28.8 µM.
Still for that read-out and setting: to `CCOC(=O)/C(C#N)=C\c1ccc(N(CCC(=O)O)CCC(=O)O)c(I)c1` belongs more than 10 µM; to `O=C(NC1=NCC(CN2CCN(c3ccccc3)CC2)O1)Nc1ccccc1` (stereo unspecified), more than 100 µM.
On the same count and under the same terms, the same measure for `Cc1cc2ccccc2n2c1nc1ccccc12`: more than 100 µM; for `CC(=O)C(=C(c1ccccc1)c1ccccc1)c1ccccc1`: more than 100 µM.
Same read-out and setting: the same measure for `Cc1ccc2c(c1)[nH]c(=S)n2/C=C1\C(=O)Oc2ccccc2C1=O`: more than 100 µM.
With `C=CCNC(=O)NC(=O)CSC1=NNC2(C(=O)N1)c1ccccc1-c1ccccc12`, the TGI was more than 10 µM.
The same measure, in the same setting: to `O=C1CCCCC/C1=C\c1cccc(Cl)c1` belongs more than 100 µM; to `COC(=O)C1(C(=O)OC)Cc2ccc(OC)cc2C2=C1C(=O)c1ccccc1C2=O`, more than 100 µM; to `O=C1C(Cl)C2(CC(/C=C/c3ccccc3Cl)=NN2c2cccc(S(=O)(=O)O)c2)N1c1nc2ccccc2s1` (stereo unspecified), 25.3 µM.
On the same count and under the same terms, the same measure for `Nc1ncnn2c(C3OC(CO)C(O)C3O)ccc12` (stereo unspecified): 0.837 µM; for `COCCOC(=O)c1c(C)n([O-])c2cc(Cl)c(Cl)cc2[n+]1=O`: 18.9 µM; for `O=C(CC(=O)N(C(=O)/C=C\c1ccccc1)c1ccc(Cl)cc1)N1N=C(c2ccccc2)C(N=Nc2cccc([N+](=O)[O-])c2)C1=O` (stereo unspecified): 14 µM.
On the same count and under the same terms, the same measure for `Cn1c(=O)c(Br)c(C=O)n(CCO[N+](=O)[O-])c1=O`: 5.48 µM; for `COc1ccc(-c2c(C#N)c(N)n(C3OCC(OC(C)=O)C(OC(C)=O)C3OC(C)=O)c(=S)c2C#N)cc1` (stereo unspecified): 39.5 µM and 54.6 µM.

The test system of the next experiment is 786-0 renal. Briefly: growth of human tumour cells (NCI), 48 h.
As to `CCCCCCCCCCCCCCCCCCNc1ccn(C2OC(COP(=O)(O)OCC3OC(n4cc(F)c(=O)[nH]c4=O)CC3O)C(O)C2O)c(=O)n1` (stereo unspecified), the TGI was more than 100 µM.
On the same count and under the same terms, to `CCOC(=O)/C(C#N)=C\c1ccc(N(CCC(=O)O)CCC(=O)O)c(I)c1` belongs more than 10 µM; to `O=C(NC1=NCC(CN2CCN(c3ccccc3)CC2)O1)Nc1ccccc1` (stereo unspecified), more than 100 µM.
`Cc1cc2ccccc2n2c1nc1ccccc12` came in with a TGI of more than 100 µM.
For `CC(=O)C(=C(c1ccccc1)c1ccccc1)c1ccccc1`, the TGI is more than 100 µM.
On the same count and under the same terms, the same measure for `Cc1ccc2c(c1)[nH]c(=S)n2/C=C1\C(=O)Oc2ccccc2C1=O`: more than 100 µM; for `C=CCNC(=O)NC(=O)CSC1=NNC2(C(=O)N1)c1ccccc1-c1ccccc12`: more than 10 µM.
`O=C1CCCCC/C1=C\c1cccc(Cl)c1` gave a TGI of more than 100 µM.
On the same count and under the same terms, to `COC(=O)C1(C(=O)OC)Cc2ccc(OC)cc2C2=C1C(=O)c1ccccc1C2=O` belongs more than 47.9 µM; to `O=C1C(Cl)C2(CC(/C=C/c3ccccc3Cl)=NN2c2cccc(S(=O)(=O)O)c2)N1c1nc2ccccc2s1` (stereo unspecified), 62.3 µM; to `Nc1ncnn2c(C3OC(CO)C(O)C3O)ccc12` (stereo unspecified), 0.807 µM.
With `COCCOC(=O)c1c(C)n([O-])c2cc(Cl)c(Cl)cc2[n+]1=O`, the TGI came to 85.1 µM.
As to `O=C(CC(=O)N(C(=O)/C=C\c1ccccc1)c1ccc(Cl)cc1)N1N=C(c2ccccc2)C(N=Nc2cccc([N+](=O)[O-])c2)C1=O` (stereo unspecified), the TGI was 19.6 µM.
In turn, `Cn1c(=O)c(Br)c(C=O)n(CCO[N+](=O)[O-])c1=O` came in with a TGI of 17.3 µM.
Molecule `COc1ccc(-c2c(C#N)c(N)n(C3OCC(OC(C)=O)C(OC(C)=O)C3OC(C)=O)c(=S)c2C#N)cc1` (stereo unspecified) returned a TGI of more than 100 µM.

A further experiment concerns SN12C renal. As to the kind of experiment: growth of human tumour cells (NCI), 48 h.
In turn, `CCCCCCCCCCCCCCCCCCNc1ccn(C2OC(COP(=O)(O)OCC3OC(n4cc(F)c(=O)[nH]c4=O)CC3O)C(O)C2O)c(=O)n1` (stereo unspecified) yielded a TGI of more than 100 µM.
The same measure, in the same setting: to `CCOC(=O)/C(C#N)=C\c1ccc(N(CCC(=O)O)CCC(=O)O)c(I)c1` belongs more than 10 µM; to `O=C(NC1=NCC(CN2CCN(c3ccccc3)CC2)O1)Nc1ccccc1` (stereo unspecified), more than 100 µM; to `Cc1cc2ccccc2n2c1nc1ccccc12`, more than 100 µM.
`CC(=O)C(=C(c1ccccc1)c1ccccc1)c1ccccc1` returned a TGI of more than 100 µM.
On the same count and under the same terms, the same measure for `Cc1ccc2c(c1)[nH]c(=S)n2/C=C1\C(=O)Oc2ccccc2C1=O`: more than 100 µM.
